According to ChEMBL document CHEMBL1122879, “Racemic and optically active 1,3,3-trimethyl-4-phenyl-4-(propionyloxy)piperidine” (1985):

Legend:
Format in all cases: functional
Rattus norvegicus [1] = organism: Rattus norvegicus; experiment: Effective dose for antinociceptive activity in rats
Mus musculus = experiment: Effective dose for antinociceptive activity in mice hot plate test s.c.; settings: sc
Rattus norvegicus [2] = experiment: Effective dose for antinociceptive activity in rat tail-withdrawal test i.v.

`CCC(=O)O[C@@]1(c2ccccc2)CCN(C)CC1(C)C` showed an ED50 (Rattus norvegicus [1]) of 0.5 mg/kg.
Compound `CCOC(=O)C1(c2ccccc2)CCN(C)CC1` [MEPERIDINE] has an ED50 (Mus musculus) of 4.1 mg/kg and an ED50 (Rattus norvegicus [2]) of 6.15 mg/kg.
`CCC(=O)OC1(c2ccccc2)CCN(C)CC1(C)C` (racemic) gave an ED50 (Mus musculus) of 0.61 mg/kg and an ED50 (Rattus norvegicus [2]) of 0.63 mg/kg.
